Molecules are shown by their SMILES.

The text below walks through data of US7125990B2, “Imidazolyl derivatives as corticotropin releasing factor inhibitors” (Bristol-Myers Squibb COmpany, priority 2001, dated 2006).

The assay has as its target T1, CRF1 receptors (Homo sapiens, UniProt P34998).
T1 construct: endogenous in cells; host or cells: IMR-32 cells, transformed with 2.5 µM 5'-bromo-2'-deoxyuridine for 10 days; membrane preparation
T1 sequence (P34998 24-415): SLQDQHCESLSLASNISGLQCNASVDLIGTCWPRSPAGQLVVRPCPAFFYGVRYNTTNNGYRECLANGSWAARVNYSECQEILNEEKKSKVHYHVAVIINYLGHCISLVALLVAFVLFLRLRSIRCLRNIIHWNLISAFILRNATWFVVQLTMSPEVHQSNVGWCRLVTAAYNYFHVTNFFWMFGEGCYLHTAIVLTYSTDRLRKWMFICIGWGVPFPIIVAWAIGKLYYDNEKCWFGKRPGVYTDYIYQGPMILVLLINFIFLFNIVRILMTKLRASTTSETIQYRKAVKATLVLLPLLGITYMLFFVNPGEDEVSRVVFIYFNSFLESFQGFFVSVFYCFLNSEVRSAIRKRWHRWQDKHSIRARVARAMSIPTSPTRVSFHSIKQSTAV
The assay is described as follows: CRF1 receptor radioligand binding assay ([125I]-oCRF competition, IMR-32 cell membranes). The note with it: IMR-32 cell membranes, [125I]-oCRF 100 pM; read-out: Ki (CRF-1R). In a few lines: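 Buffer: Tris pH 7.2 with MgCl2, BSA, Triton X-100, aprotinin, leupeptin; reaction stopped with ice-cold wash and filtered. Nonspecific binding set with 10 μM oCRF.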
For the compound `CCCN(Cc1ccccc1)Cc1c(C(F)(F)F)nc2n(-c3ccc(C(C)C)cc3Br)c3ccccc3n12` [Example 209, Benzyl-[8-(2-bromo-4-isopropyl-phenyl)-2-trifluoromethyl-8H-1,3a,8-triaza-cyclopenta[α]inden-3-ylmethyl]-propyl-amine], the inhibitory constant (Ki) is less than 10000 nM.

Consider `Cc1cc(C)c(-n2c3ncccc3n3c(CN(CC4CC4)CC(F)(F)F)c(C(F)(F)F)nc23)c(C)c1` [Example 210, Cyclopropylmethyl-(2,2,2-trifluoro-ethyl)-[2-trifluoromethyl-8-(2,4,6-trimethyl-phenyl)-8H-1,3a,7,8-tetraaza-cyclopenta[α]inden-3-ylmethyl]-amine], for which the Ki is less than 100 nM. For the compound `Cc1cc(C)c(-n2c3ncccc3n3c(CN(CC4CC4)CC(F)(F)C(F)(F)F)c(C(F)(F)F)nc23)c(C)c1` [Example 212, Cyclopropylmethyl-(2,2,3,3,3-pentafluoro-propyl)-[2-trifluoromethyl-8-(2,4,6-trimethyl-phenyl)-8H-1,3a,7,8-tetraaza-cylopenta[α]inden-3-ylmethyl]-amine], the Ki is less than 100 nM. With `Cc1cc(C)c(-n2c3ncccc3n3c(CN(CCC(F)(F)F)CC4CC4)c(C(F)(F)F)nc23)c(C)c1` [Example 213, Cyclopropylmethyl-[2-trifluoromethyl-8-(2,4,6-trimethyl-phenyl)-8H-1,3a,7,8-tetraaza-cyclopenta[α]inden-3-ylmethyl]-(3,3,3-trifluoro-propyl)-amine] the figure was less than 100 nM; with `Cc1cc(C)c(-n2c3ncccc3n3c(CN(CC4CC4)CC4CC4)c(C(F)(F)F)nc23)c(C)c1` [Example 214, Bis-cyclopropylmethyl-[2-trifluoromethyl-8-(2,4,6-trimethyl-phenyl)-8H-1,3a,7,8-tetraaza-cyclopenta[α]inden-3-ylmethyl]-amine], less than 100 nM; with `CCCN(Cc1c(C(F)(F)F)nc2n(-c3c(C)cc(C)cc3C)c3ncccc3n12)CC1CCC1` [Example 215, Cyclobutylmethyl-propyl-[2-trifluoromethyl-8-(2,4,6-trimethyl-phenyl)-8H-1,3a,7,8-tetraaza-cyclopenta[α]inden-3-ylmethyl]-amine], less than 100 nM. With `Cc1cc(C)c(-n2c3ncccc3n3c(CN(CC4CCC4)CC(F)(F)F)c(C(F)(F)F)nc23)c(C)c1` [Example 216, Cyclobutylmethyl-(2,2,2-trifluoro-ethyl)-[2-trifluoromethyl-8-(2,4,6-trimethyl-phenyl)-8H-1,3a,7,8-tetraaza-cyclopenta[α]inden-3-ylmethyl]-amine] the figure was less than 100 nM. The value for `CCCN(CCc1ccccc1)Cc1c(C(F)(F)F)nc2n(-c3c(C)cc(C)cc3C)c3ncccc3n12` [Example 217, Phenethyl-propyl-[2-trifluoromethyl-8-(2,4,6-trimethyl-phenyl)-8H-1,3a,7,8-tetraaza-cyclopenta[α]inden-3-ylmethyl]-amine] was less than 100 nM; that for `CCN(CCc1ccccc1)Cc1c(C(F)(F)F)nc2n(-c3c(C)cc(C)cc3C)c3ncccc3n12` [Example 218, Ethyl-phenethyl-[2-trifluoromethyl-8-(2,4,6-trimethyl-phenyl)-8H-1,3a,7,8-tetraaza-cyclopenta[α]inden-3-ylmethyl]-amine] was less than 1000 nM; that for `C=CCN(CC=C)Cc1c(C(F)(F)F)nc2n(-c3c(C)cc(C)cc3C)c3ncccc3n12` [Example 219, Diallyl-[2-trifluoromethyl-8-(2,4,6-trimethyl-phenyl)-8H-1,3a,7,8-tetraaza-cyclopenta[α]inden-3-ylmethyl]-amine] was less than 1000 nM. With `C=CCN(CCC)Cc1c(C(F)(F)F)nc2n(-c3c(C)cc(C)cc3C)c3ncccc3n12` [Example 220, Allyl-propyl-[2-trifluoromethyl-8-(2,4,6-trimethyl-phenyl)-8H-1,3a,7,8-tetraaza-cyclopenta[α]inden-3-ylmethyl]-amine], the Ki was less than 1000 nM. With `CCCN(CCC(F)(F)F)Cc1c(C(F)(F)F)nc2n(-c3c(C)cc(C)cc3C)c3ncccc3n12` [Example 221, Propyl-[2-trifluoromethyl-8-(2,4,6-trimethyl-phenyl)-8H-1,3a,7,8-tetraaza-cyclopenta[α]inden-3-ylmethyl]-(3,3,3-trifluoro-propyl)-amine] the figure was less than 1000 nM; with `CCCN(Cc1c(C(F)(F)F)nc2n(-c3c(C)cc(C)cc3C)c3ncccc3n12)CC(F)(F)F` [Example 222, Propyl-(2,2,2-trifluoro-ethyl)-[2-trifluoromethyl-8-(2,4,6-trimethyl-phenyl)-8H-1,3a,7,8-tetraaza-cyclopenta[α]inden-3-ylmethyl]-amine], less than 1000 nM; with `CCN(Cc1c(C(F)(F)F)nc2n(-c3c(C)cc(C)cc3C)c3ncccc3n12)CC1CC1` [Example 223, Cyclopropylmethyl-ethyl-[2-trifluoromethyl-8-(2,4,6-trimethyl-phenyl)-8H-1,3a,7,8-tetraaza-cyclopenta[α]inden-3-ylmethyl]-amine], less than 1000 nM. With `CCCN(Cc1c(C(F)(F)F)nc2n(-c3c(C)cc(C)cc3C)c3ncccc3n12)CC(F)(F)C(F)(F)F` [Example 224, (2,2,3,3,3-Pentafluoro-propyl)-propyl-[2-trifluoromethyl-8-(2,4,6-trimethyl-phenyl)-8H-1,3a,7,8-tetraaza-cyclopenta[α]inden-3-ylmethyl]-amine] the figure was less than 1000 nM; with `Cc1cc(C)c(-n2c3ncccc3n3c(CN(CCC4CC4)CCC(F)(F)F)c(C(F)(F)F)nc23)c(C)c1` [Example 225, (2-Cyclopropyl-ethyl)-[2-trifluoromethyl-8-(2,4,6-trimethyl-phenyl)-8H-1,3a,7,8-tetraaza-cyclopenta[α]inden-3-ylmethyl]-(3,3,3-trifluoro-propyl)-amine], less than 1000 nM; with `Cc1cc(C)c(-n2c3ncccc3n3c(CN(CCc4ccccc4)CCC(F)(F)F)c(C(F)(F)F)nc23)c(C)c1` [Example 226, Phenethyl-[2-trifluoromethyl-8-(2,4,6-trimethyl-phenyl)-8H-1,3a,7,8-tetraaza-cyclopenta[a]inden-3-ylmethyl]-(3,3,3-trifluoro-propyl)-amine], less than 1000 nM. As for `Cc1cc(C)c(-n2c3ncccc3n3c(CN(CCC(F)(F)F)Cc4ccccc4)c(C(F)(F)F)nc23)c(C)c1` [Example 227, Benzyl-[2-trifluoromethyl-8-(2,4,6-trimethyl-phenyl)-8H-1,3a,7,8-tetraaza-cyclopenta[α]inden-3-ylmethyl]-(3,3,3-trifluoro-propyl)-amine], the Ki was less than 1000 nM. For the compound `Cc1cc(C)c(-n2c3ncccc3n3c(CN(C)Cc4ccccc4)c(C(F)(F)F)nc23)c(C)c1` [Example 228, Benzyl-methyl-[2-trifluoromethyl-8-(2,4,6-trimethyl-phenyl)-8H-1,3a,7,8-tetraaza-cyclopenta[α]inden-3-ylmethyl]-amine], the inhibition constant Ki is less than 1000 nM. As to `CCN(CCC1CC1)Cc1c(C(F)(F)F)nc2n(-c3c(C)cc(C)cc3C)c3ncccc3n12` [Example 229, (2-Cyclopropyl-ethyl)-ethyl-[2-trifluoromethyl-8-(2,4,6-trimethyl-phenyl)-8H-1,3a,7,8-tetraaza-cyclopenta[α]inden-3-ylmethyl]-amine], the inhibition constant Ki was less than 1000 nM. The value for `CCCN(CCC1CC1)Cc1c(C(F)(F)F)nc2n(-c3c(C)cc(C)cc3C)c3ncccc3n12` [Example 230, (2-Cyclopropyl-ethyl)-propyl-[2-trifluoromethyl-8-(2,4,6-trimethyl-phenyl)-8H-1,3a,7,8-tetraaza-cyclopenta[α]inden-3-ylmethyl]-amine] was less than 1000 nM; that for `CCCCN(CC)Cc1c(C(F)(F)F)nc2n(-c3c(C)cc(C)cc3C)c3ncccc3n12` [Example 231, Butyl-ethyl-[2-trifluoromethyl-8-(2,4,6-trimethyl-phenyl)-8H-1,3a,7,8-tetraaza-cyclopenta[α]inden-3-ylmethyl]-amine] was less than 1000 nM; that for `Cc1cc(C)c(-n2c3ncccc3n3c(CN(CCC4CC4)CC(F)(F)F)c(C(F)(F)F)nc23)c(C)c1` [Example 232, (2-Cyclopropyl-ethyl)-(2,2,2-trifluoro-ethyl)-[2-trifluoromethyl-8-(2,4,6-trimethyl-phenyl)-8H-1,3a,7,8-tetraaza-cyclopenta[α]inden-3-ylmethyl]-amine] was less than 1000 nM. For the compound `CCN(Cc1ccccc1)Cc1c(C(F)(F)F)nc2n(-c3c(C)cc(C)cc3C)c3ncccc3n12` [Example 233, Benzyl-ethyl-[2-trifluoromethyl-8-(2,4,6-trimethyl-phenyl)-8H-1,3a,7,8-tetraaza-cyclopenta[α]inden-3-ylmethyl]-amine], the Ki was less than 10000 nM. The value for `Cc1cc(C)c(-n2c3ncccc3n3c(CN(CCc4ccccc4)CC(F)(F)F)c(C(F)(F)F)nc23)c(C)c1` [Example 234, Phenethyl-(2,2,2-trifluoro-ethyl)-[2-trifluoromethyl-8-(2,4,6-trimethyl-phenyl)-8H-1,3a,7,8-tetraaza-cyclopenta[α]inden-3-ylmethyl]-amine] was less than 10000 nM; that for `CCCCN(Cc1ccccc1)Cc1c(C(F)(F)F)nc2n(-c3c(C)cc(C)cc3C)c3ncccc3n12` [Example 235, Benzyl-butyl-[2-trifluoromethyl-8-(2,4,6-trimethyl-phenyl)-8H-1,3a,7,8-tetraaza-cyclopenta[α]inden-3-ylmethyl]-a mine] was less than 10000 nM.

Usually Ki stands for the dissociation constant of the complex between target and ligand, obtained from inhibition or displacement.
